Legend:
Experiment in all cases: MIC, liquid medium test tube series dilution test
Staph. aureus 1777 E = format: cell-based, Staphylococcus aureus; details: 24 hours, 37°C
Outline: (§1)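 In this in vitro test, growth inhibition is judged by absence of turbidity across a dilution series in complete nutrient broth. Readings are made after 24 hours at 37°C, with values given in units/ml.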

Staph. aureus 133 = format: cell-based, Staphylococcus aureus; details: Staph. aureus 133, 24 hours, 37°C
Outline: as §1

E. coli 14 = format: cell-based; details: E. coli 14, 24 hours, 37°C
Outline: as §1

E. coli C 165 = format: cell-based; details: E. coli C 165, 24 hours, 37°C
Outline: as §1

E. coli 183/58 = format: cell-based; details: E. coli 183/58, 24 hours, 37°C
Outline: as §1

Klebsiella 63 = format: cell-based; details: Klebsiella 63, 24 hours, 37°C
Outline: as §1

E. coli A 261 = format: cell-based; details: E. coli A 261, 24 hours, 37°C
Outline: as §1

[1] = tested on: Streptoc. faec. ATCC 9790; format: cell-based; details: Strep. faec. (Enterococcus) ATCC 9790, 24 hours, 37°C
Outline: as §1

Klebsiella K 10 = format: cell-based; details: Klebsiella K 10, 24 hours, 37°C
Outline: as §1

Psdm. aerug. Walter = format: cell-based, Pseudomonas aerug.; details: 24 hours, 37°C
Outline: as §1

Psdm. aerug. Bonn = format: cell-based, Pseudomonas aerug.; details: 24 hours, 37°C
Outline: as §1

Proteus vulg. 3400 = format: cell-based, Proteus vulgaris; details: Proteus vulg. 3400, 24 hours, 37°C
Outline: as §1

Proteus vulg. 1017 = format: cell-based, Proteus vulgaris; details: Proteus vulg. 1017, 24 hours, 37°C
Outline: as §1

SMILES | MIC (Staph. aureus 1777 E) | MIC (Staph. aureus 133) | MIC (E. coli 14) | MIC (E. coli C 165) | MIC (E. coli 183/58) | MIC (Klebsiella 63) | MIC (E. coli A 261) | MIC [1] | MIC (Klebsiella K 10) | MIC (Psdm. aerug. Walter) | MIC (Psdm. aerug. Bonn) | MIC (Proteus vulg. 3400) | MIC (Proteus vulg. 1017)
COC(=O)N(C)C(=O)N[C@@H](C(=O)N[C@@H]1C(=O)N2[C@@H]1SC(C)(C)[C@@H]2C(=O)O)c1c(Cl)cccc1Cl [Example 7, Sodium D(-)-α-(3-methoxycarbonyl-3-methyl-ureido)-2,6-dichlorobenzylpenicillin] | 100-500 units/ml | 0.8-4 units/ml | 100-500 units/ml | 100-500 units/ml | 100-500 units/ml | > 500 units/ml | > 500 units/ml | 100-500 units/ml | > 500 units/ml | > 500 units/ml | 100-500 units/ml | 100-500 units/ml | ~ 500 units/ml
COC(=O)N(C)C(=O)N[C@H](C(=O)N[C@@H]1C(=O)N2[C@@H]1SC(C)(C)[C@@H]2C(=O)O)c1c(Cl)cccc1Cl [Example 8, Sodium L(+)-α-(3-methoxycarbonyl-3-methyl-ureido)-2,6-dichlorobenzylpenicillin] | 100-500 units/ml | 4-20 units/ml | > 500 units/ml | > 500 units/ml | > 500 units/ml | > 500 units/ml | > 500 units/ml | > 500 units/ml | > 500 units/ml | > 500 units/ml | > 500 units/ml | > 500 units/ml | > 500 units/ml
CC1(C)S[C@@H]2[C@H](NC(=O)[C@H](NC(=O)N3CCNC3=O)c3ccccc3)C(=O)N2[C@H]1C(=O)O [Example 52, D(-)-α-[(Imidazolidin-2-on-1-yl)-carbonylamino]-benzylpenicillin] | 200 units/ml | < 0,78 units/ml | 3,12 units/ml | 12,5 units/ml | 6,25 units/ml |  | > 400 units/ml |  | 100 units/ml | 12,5 units/ml | 12,5 units/ml |  | 
C=CCN(C(=O)N[C@@H](C(=O)N[C@@H]1C(=O)N2[C@@H]1SC(C)(C)[C@@H]2C(=O)O)c1ccccc1)C(=O)c1ccccc1 [Example 90, Sodium D(-)-α-(3-benzoyl-3-allyl-ureido)-benzylpenicillin] | 50 units/ml |  | 6.25 units/ml | 12.5 units/ml | 12.5 units/ml | 25 units/ml | 400 units/ml | 100 units/ml | 50 units/ml | 50 units/ml | 25 units/ml | 25 units/ml | 12.5 units/ml
CCC(=O)N(C(=O)N[C@@H](C(=O)N[C@@H]1C(=O)N2[C@@H]1SC(C)(C)[C@@H]2C(=O)O)c1ccccc1)c1ccccc1 [Example 143, Sodium D(-)-α-(3-propionyl-3-phenyl-ureido)-benzylpenicillin] |  | < 0.8 units/ml | 12.5 units/ml | 50 units/ml | 50 units/ml | 100 units/ml | > 400 units/ml | 100 units/ml | 50 units/ml | 200 units/ml | 200 units/ml | 400 units/ml | 200 units/ml

Second part, the compound after the results:

MIC (Staph. aureus 1777 E) | MIC (Staph. aureus 133) | MIC (E. coli 14) | MIC (E. coli C 165) | MIC (E. coli 183/58) | MIC (Klebsiella 63) | MIC (E. coli A 261) | MIC [1] | MIC (Klebsiella K 10) | MIC (Psdm. aerug. Walter) | MIC (Psdm. aerug. Bonn) | MIC (Proteus vulg. 3400) | MIC (Proteus vulg. 1017) | SMILES
100-500 units/ml | 0.8 units/ml |  | 0.8-4 units/ml |  | 100-500 units/ml |  |  |  | 4-20 units/ml |  |  | 4-20 units/ml | CCC(=O)N(C)C(=O)N[C@@H](C(=O)N[C@@H]1C(=O)N2[C@@H]1SC(C)(C)[C@@H]2C(=O)O)c1ccccc1 [Example 113, Sodium D(-)-α-(3-propionyl-3-methyl-ureido)-benzylpenicillin]
100-500 units/ml | 0.8 units/ml |  | 4-20 units/ml |  | 100-500 units/ml |  |  |  | 4-20 units/ml |  |  | 20-100 units/ml | CCN(C(C)=O)C(=O)N[C@@H](C(=O)N[C@@H]1C(=O)N2[C@@H]1SC(C)(C)[C@@H]2C(=O)O)c1ccccc1 [Example 114, Sodium D(-)-α-(3-acetyl-3-ethyl-ureido)-benzylpenicillin]
100-500 units/ml | 0.8 units/ml |  | 20-100 units/ml |  | 100-500 units/ml |  |  |  | 20-100 units/ml |  |  | 20-100 units/ml | CCCN(C(C)=O)C(=O)N[C@@H](C(=O)N[C@@H]1C(=O)N2[C@@H]1SC(C)(C)[C@@H]2C(=O)O)c1ccccc1 [Example 115, Sodium D(-)-α-(3-acetyl-3-n-propyl-ureido)-benzylpenicillin]
100-500 units/ml | 0.8 units/ml |  | 4-20 units/ml |  | 20-100 units/ml |  |  |  | ~20 units/ml |  |  | 4-20 units/ml | CC(C)C(=O)N(C)C(=O)N[C@@H](C(=O)N[C@@H]1C(=O)N2[C@@H]1SC(C)(C)[C@@H]2C(=O)O)c1ccccc1 [Example 116, Sodium D(-)-α-(3-i-butyryl-3-methyl-ureido)-benzylpenicillin]
 | < 0.8 units/ml | 0.8 units/ml | 3.1 units/ml | 1.6 units/ml | 25 units/ml | 50 units/ml | 12.5 units/ml | 12.5 units/ml | 12.5 units/ml | 12.5 units/ml | 6.25 units/ml | 3.1 units/ml | CN(C(=O)N[C@@H](C(=O)N[C@@H]1C(=O)N2[C@@H]1SC(C)(C)[C@@H]2C(=O)O)c1ccccc1)C(=O)c1ccccc1[N+](=O)[O-] [Example 140, Sodium D(-)-α-(3-o-nitrobenzoyl-3-methyl-ureido)-benzylpenicillin]
 | < 0.8 units/ml | 0.8 units/ml | 3.1 units/ml | 1.6 units/ml | 25 units/ml | 50 units/ml | 25 units/ml | 12.5 units/ml | 12.5 units/ml | 25 units/ml | 12.5 units/ml | 3.1 units/ml | CN(C(=O)N[C@@H](C(=O)N[C@@H]1C(=O)N2[C@@H]1SC(C)(C)[C@@H]2C(=O)O)c1ccccc1)C(=O)c1ccc(Cl)cc1Cl [Example 142, Sodium D(-)-α-(3-[2,4-dichlorobenzoyl]-3-methyl-ureido)-benzylpenicillin]

Source: patent US3974140A, “Ureidoacetamido-penicillins” (Bayer Aktiengesellschaft, priority 1970, dated 1976)
